{"source": "patent US20250312332A1", "about": "“TREATMENT OF MUSCLE FIBROSIS” (University of Newcastle upon Tyne, priority 2022, published 2025)", "key": {"[1]": {"test_system": "FAPs", "format": "cell-based, human", "settings": "for increase in FAPs migration: vs untreated FAPs"}, "[2]": {"test_system": "dba/2J-mdx mice", "test": "Quadriceps histology and immunofluorescence in dba/2J-mdx mice", "format": "in vivo, mouse"}, "[3]": {"test_system": "myosin light chain 2 (p-MLC2)", "format": "cell-based, human"}, "[4]": {"test_system": "RhoA pathway", "test": "RhoA downstream effectors in quadriceps of dba/2J-mdx mice (qPCR, IF)", "format": "in vivo, mouse"}, "[5]": {"test_system": "FAPs", "format": "cell-based, human"}, "[6]": {"test_system": "FAPs", "format": "cell-based, human", "settings": "for increase in FAPs proliferation: vs untreated FAPs"}, "[7]": {"test_system": "dba/2J-mdx mice", "test": "Grip strength test in dba/2J-mdx mice", "format": "in vivo, mouse", "settings": "after six weeks of treatment, vs non-treated mice"}, "[8]": {"test_system": "FAPs", "format": "cell-based, human", "remark": "listed apart in the source"}, "[9]": {"test_system": "dba/2J-mdx mice", "test": "Flow cytometry of muscle macrophages in dba/2J-mdx mice", "format": "in vivo, mouse"}, "[10]": {"test_system": "FAPs"}, "[11]": {"test_system": "dba/2J-mdx mice", "test": "Fasudil treatment of dba/2J-mdx mice: behaviour and weight", "settings": "mouse, in vivo"}, "[12]": {"test_system": "dba/2J-mdx mice", "test": "Cytokine array of quadriceps in dba/2J-mdx mice", "format": "in vivo, mouse", "settings": "treated vs non-treated mice"}, "[13]": {"test_system": "RhoA-GTP", "format": "cell-based, human", "settings": "DMD-FAPs, PDGF-AA 50 ng/ml 20 min, vs untreated FAPs"}}, "note": "“And” between values parts separate entries of the source, which are not always exact repeats. Equal entries are not always repeated. “Also recorded” adds a separate entry of the source. Where two headings read alike, the source gives them in different places."}
{"molecule": "O=S(=O)(c1cccc2cnccc12)N1CCCNCC1", "note": "[Fasudil, 5-(1,4-diazepan-1-ylsulfonyl)isoquinoline]", "values": [{"measurement": "reduction of migration rate", "setting": "[1]", "result": "2.43 fold and 4 fold"}, {"measurement": "reduction in collagen-I area in the quadriceps", "setting": "[2]; 100 mg/kg/day orally 6 weeks", "result": 23, "unit": "%"}, {"measurement": "myofiber size", "setting": "[2]; treated vs non-treated mice", "result": "significant increase"}, {"measurement": "neutrophil population in quadriceps", "setting": "[2]; treated vs non-treated mice", "result": "trend towards a reduction"}, {"measurement": "number of T and B cells in quadriceps", "setting": "[2]; treated vs non-treated mice", "result": "no changes"}, {"measurement": "decrease in the PDGFRα area (number of FAPs) in quadriceps", "setting": "[2]; treated vs non-treated, not significant", "result": 42, "unit": "%"}, {"measurement": "reduction of quadriceps area stained with F4/80 (macrophages)", "setting": "[2]; treated vs untreated mice", "result": 74, "unit": "%"}, {"measurement": "effect on PDGF-AA-induced MLC2 phosphorylation", "setting": "[3]", "result": "reversed"}, {"measurement": "RhoA pathway downstream effector targets (ROCK2, LIMK2, FHOD1)", "setting": "[4]; 100 mg/kg/day orally 6 weeks", "result": "inhibited RhoA pathway"}, {"measurement": "protein expression of LIMK2", "setting": "[4]; treated vs untreated mice", "result": "significantly reduced"}, {"measurement": "protein expression of MLC2", "setting": "[4]; treated vs untreated mice", "result": "significantly reduced"}, {"measurement": "release of collagen-I to the culture medium", "setting": "[5]", "result": "reversed"}, {"measurement": "decrease in proliferation rate", "setting": "[6]", "result": 2.6, "unit": "fold"}, {"measurement": "proliferation inhibition", "setting": "[6]", "result": "lack of proliferation inhibition"}, {"measurement": "increase in forelimb strength", "setting": "[7]", "result": 1.76, "unit": "fold"}, {"measurement": "polymerization of intracellular actin filaments", "setting": "[8]", "result": "impinged"}, {"measurement": "decrease in the number of F4/80 positive cells", "setting": "[9]; flow cytometry, treated vs non-treated mice", "result": 18.3, "unit": "%"}, {"measurement": "reduction in the expression levels of CD163 marker in macrophages", "setting": "[9]; skeletal muscles of treated mice", "result": 31, "unit": "%"}, {"measurement": "reduction in the expression levels of CD206 marker in macrophages", "setting": "[9]; treated mice", "result": 18, "unit": "%"}, {"measurement": "expression levels or number of CD209 cells (M2 macrophages)", "setting": "[9]; treated vs non-treated mice", "result": "did not observe any difference"}, {"measurement": "percentage of positive cells or expression of CD80 and DR (M1 markers)", "setting": "[9]; treated vs non-treated mice", "result": "did not observe changes"}, {"measurement": "lower number of CD163+ cells", "setting": "[9]; vs non-treated mice", "result": 3, "unit": "%"}, {"measurement": "lower number of CD206+ cells", "setting": "[9]; vs non-treated mice", "result": 10, "unit": "%"}, {"measurement": "cell viability", "setting": "[10]", "result": "did not affect cell viability; also recorded: neither C3-exoenzyme nor fasudil had any effect on cell viability"}, {"measurement": "behaviour during the treatment period (adverse effects)", "setting": "[11]", "result": "did not experience any change in their behaviour"}, {"measurement": "body weight, treated vs untreated mice", "setting": "[11]", "result": "decrease in weight"}, {"measurement": "TNFα, IL-4, IL-17, CXCL1, CXCL2, CXCL10, CCL2, CCL3 or CCL17 cytokine levels", "setting": "[12]", "result": "reduction"}]}
{"molecule": "PDGF-AA", "values": [{"measurement": "increase in FAPs migration", "setting": "[1]; 48 hours", "result": 2.48, "unit": "fold"}, {"measurement": "increase in FAPs migration", "setting": "[1]; 72 hours", "result": 3.37, "unit": "fold"}, {"measurement": "increase in MLC2 phosphorylation", "setting": "[3]; DMD-FAPs treated with PDGF-AA", "result": 2.3, "unit": "fold"}, {"measurement": "release of collagen-I to the culture medium", "setting": "[5]; 4 days treatment", "result": "increased non-significantly"}, {"measurement": "increase in the RhoA-GTP levels", "setting": "[13]", "result": 1.88, "unit": "fold"}, {"measurement": "increase in FAPs proliferation", "setting": "[6]; 48 hours", "result": 3.6, "unit": "fold"}, {"measurement": "increase in FAPs proliferation", "setting": "[6]; 72 hours", "result": 6, "unit": "fold"}, {"measurement": "polymerization of intracellular actin filaments", "setting": "[8]", "result": "induced polymerization"}, {"measurement": "cell viability", "setting": "[10]", "result": "did not affect cell viability"}]}
